Consider 18 molecules from patent US10829486B2, “Isoxazole derivatives as FXR agonists and methods of use thereof” (ENANTA PHARMACEUTICALS, INC., priority 2018, dated 2020).

The experiment addresses T1, human FXR (NR1H4) (Homo sapiens, UniProt Q96RI1).
T1 construct: host or cells: CHO (Chinese hamster ovary) reporter cells
T1 sequence (Q96RI1 1-486): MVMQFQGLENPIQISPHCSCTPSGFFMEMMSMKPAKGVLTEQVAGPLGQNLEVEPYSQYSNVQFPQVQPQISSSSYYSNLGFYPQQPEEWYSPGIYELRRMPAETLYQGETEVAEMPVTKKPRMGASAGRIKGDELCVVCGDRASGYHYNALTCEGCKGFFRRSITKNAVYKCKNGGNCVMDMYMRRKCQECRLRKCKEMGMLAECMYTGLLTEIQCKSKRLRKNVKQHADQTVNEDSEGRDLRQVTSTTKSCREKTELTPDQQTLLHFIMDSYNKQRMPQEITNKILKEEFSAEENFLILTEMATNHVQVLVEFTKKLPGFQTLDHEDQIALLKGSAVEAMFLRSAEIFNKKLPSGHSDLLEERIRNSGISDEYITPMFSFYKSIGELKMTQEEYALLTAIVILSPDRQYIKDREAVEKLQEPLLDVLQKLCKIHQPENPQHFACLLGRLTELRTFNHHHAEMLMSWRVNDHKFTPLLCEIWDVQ
In words: Human FXR (NR1H4) Assay (Gal4 promoter driven luciferase reporter assay in CHO cells). Format: cell-based. Conditions: for EC50: CHO cells expressing human NR1H4, 22 hours incubation, potency ranges; for Emax: efficacy normalized to CDCA set as 100%, CHO cells expressing human NR1H4. An excerpt:
Determination of a ligand mediated Gal4 promoter driven transactivati on to quantify ligand binding mediated activation of FXR. FXR Reporter Assay kit purchased from Indigo Bioscience (Catalogue number: IB00601) to determine the potency and efficacy of compound developed by Enanta that can induce FXR activation. The principle application of this reporter assay system is to quantify functional activity of human FXR. The assay utilizes non-human mammalian cells, CHO (Chinese hamster ovary) cells engineered to express human NR1H4 protein (referred to as FXR). Reporter cells also incorporate the cDNA encoding beetle luciferase which catalyzes the substrates and yields photon emission. Luminescence intensity of the reaction is quantified using a plate-reading luminometer, Envision. Reporter Cells include the luciferase reporter gene functionally linked to an FXR responsive promoter. Thus, quantifying changes in luciferase expression in the treated reporter cells provides a sensitive surrogate measure of the changes in FXR activity. EC50 and efficacy (normalize to CDCA set as 100%) is determined by XLFit. The assay is according to the manufacturer's instructions. In brief, the assay was performed in white, 96 well plates using final volume of 100 ul containing cells with different doses of compounds. Retrieve Reporter Cells from −80° C. storage. Perform a rapid thaw of the frozen cells by transferring a 10 ml volume of 37° C. cell recovery medium into the tube of frozen cells. Recap the tube of Reporter Cells and immediately place it in a 37° C. water bath for 5-10 minutes. Retrieve the tube of Reporter Cell Suspension from the water bath. Sanitize the outside surface of the tube with a 70% alcohol swab, and then transfer it into the cell culture hood. Dispense 90 μl of cell suspension into each well of the 96-well Assay Plate. Transfer the plate into 37° C. incubator, allowing the cells adherent to the bottom of the well. Dilute compounds in Dilution Plate (DP), and administrate to cells at Assay Plate (AP). DMSO content of the samples was kept at 0.2%. Cells were incubated for additional 22 hours before luciferase activities were measured. Thirty minutes before intending to quantify FXR activity, remove Detection Substrate and Detection Buffer from the refrigerator and place them in a low-light area so that they may equilibrate to room temperature. Remove the plate's lid and discard all media contents by ejecting it into an appropriate waste container. Gently tap the inverted plate onto a clean absorbent paper towel to remove residual droplets. Cells will remain tightly adhered to well bottoms. Add 100 μl of luciferase detection reagent to each well of the assay plate. Allow the assay plate to rest at room temperature for at least 5 minutes following the addition of LDR. Set the instrument (Envision) to perform a single 5 second “plate shake” prior to reading the first assay well. Read time may be 0.5 second (500 mSec) per well. EC50 and Efficacy (normalize to CDCA set as 100%) is determined by XLFit.
The efficacy was normalized to CDCA set as 100%. (A=EC50<0.1 μM; B=0.1 μM<EC50<1.0 μM; C=1.0 μM<EC50<10 μM; D=EC50>10 μM).
In general terms: A reporter such as luciferase makes a cellular process visible.

Some results are limits rather than exact numbers.

For orientation: EC50 means the concentration at which the effect is half-maximal. A high value points to a need for much substance. The Emax is the greatest response seen or fitted, relative to the assay's reference. `CC(C)Oc1cc(C(=O)O)cc2sc(N(C)[C@@H]3CC[C@H](OCc4c(-c5c(Cl)cccc5Cl)noc4C4CC4)C3)nc12` [Example 1] returned a half-maximal effective concentration (EC50) of under 100 nM and an Emax of 96%.

On to `CC(C)Oc1cc(C(=O)O)cc2sc(N(C)[C@H]3CC[C@@H](OCc4c(-c5c(Cl)cccc5Cl)noc4C4CC4)C3)nc12` [Example 2], for which the EC50 was under 100 nM and the maximal effect (Emax) was 75%.

As for `CC(C)Oc1cc(C(=O)O)cc2sc(N(C)[C@H]3CC[C@H](OCc4c(-c5c(Cl)cccc5Cl)noc4C4CC4)C3)nc12` [Example 3], the EC50 lay within 100 to 1000 nM and the Emax stood at 58%.

The molecule `CC(C)Oc1cc(C(=O)O)cc2sc(N(C)[C@@H]3CC[C@@H](OCc4c(-c5c(Cl)cccc5Cl)noc4C4CC4)C3)nc12` [Example 4] registered an EC50 of 100 to 1000 nM and an Emax of 73%.

`CC(C)Oc1cc(C(=O)O)cc2sc(N(C)[C@H]3CC[C@H](OCc4c(-c5c(Cl)cccc5Cl)noc4C4CC4)CC3)nc12` [Example 5]: the concentration for a half-maximal effect (EC50) is under 100 nM and the maximum response (Emax) was found to be 85%.

The molecule `CC(C)Oc1cc(C(=O)O)cc2sc(N(C)[C@@H]3CC[C@H](OCc4c(-c5ccccc5OC(F)(F)F)noc4C4CC4)C3)nc12` [Example 6] showed an EC50 of under 100 nM and a maximum response (Emax) of 67%.

`CN(c1ccc2cc(C(=O)O)ccc2n1)[C@@H]1CC[C@H](OCc2c(-c3ccccc3OC(F)(F)F)noc2C2CC2)C1` [Example 7] returned an EC50 of under 100 nM and an Emax of 57%.

`CC(C)Oc1cc(C(=O)O)cc2sc(N[C@@H]3CC[C@H](OCc4c(-c5c(Cl)cccc5Cl)noc4C4CC4)C3)nc12` [Example 8] returned an EC50 of under 100 nM and a maximum response (Emax) of 99%.

On to `O=C(O)c1cc(F)c2nc(N[C@@H]3CC[C@H](OCc4c(-c5c(Cl)cccc5Cl)noc4C4CC4)C3)sc2c1` [Example 9], for which the 50% effective concentration (EC50) is under 100 nM and the Emax came to 104%.

In turn, `O=C(O)c1cc(F)c2nc(N[C@@H]3CCC(OCc4c(-c5ccccc5OC(F)(F)F)noc4C4CC4)C3)sc2c1` (stereo partly drawn) [Example 10] showed a 50% effective concentration (EC50) of under 100 nM and an Emax of 81%.

With `CC(C)Oc1cc(C(=O)O)cc2sc(N[C@@H]3CC[C@H](OCc4c(-c5ccccc5OC(F)(F)F)noc4C4CC4)C3)nc12` [Example 11], the EC50 was under 100 nM and the Emax came to 92%.

Molecule `CC(C)Oc1cc(C(=O)O)cc2sc(N[C@H]3CC[C@@H](OCc4c(-c5c(Cl)cccc5Cl)noc4C4CC4)CC3)nc12` [Example 14, 2-(((1s,4s)-4-((5-cyclopropyl-3-(2,6-dichlorophenyl)isoxazol-4-yl)methoxy)cyclohexyl)amino)-4-isopropoxybenzo[d]thiazole-6-carboxylic acid] had an EC50 of under 100 nM and an Emax of 84%.

`CC(C)Oc1cc(C(=O)O)cc2sc(N(C)[C@H]3CC[C@@H](OCc4c(-c5c(Cl)cccc5Cl)noc4C4CC4)CC3)nc12` [Example 15, 2-(((1s,4s)-4-((5-cyclopropyl-3-(2,6-dichlorophenyl)isoxazol-4-yl)methoxy)cyclohexyl)(methyl)amino)-4-isopropoxybenzo[d]thiazole-6-carboxylic acid] had an EC50 of under 100 nM and a maximal response (Emax) of 65%.

For the molecule `O=C(O)c1cc(F)c2nc(N[C@H]3CC[C@@H](OCc4c(-c5c(Cl)cccc5Cl)noc4C4CC4)CC3)sc2c1` [Example 16], the concentration giving a half-maximal response (EC50) is 100 to 1000 nM and the maximal effect (Emax) was 24%.

The molecule `CC(C)Oc1cc(C(=O)O)cc2sc(N[C@H]3CC[C@@H](OCc4c(-c5ccccc5OC(F)(F)F)noc4C4CC4)CC3)nc12` [Example 17] registered an EC50 of under 100 nM and a maximal response (Emax) of 91%.

In turn, `O=C(O)c1ccc2nc(N[C@H]3CC[C@@H](OCc4c(-c5c(Cl)cccc5Cl)noc4C4CC4)CC3)sc2c1` [Example 18] displayed a concentration for a half-maximal effect (EC50) of under 100 nM and a maximal response (Emax) of 52%.

With `O=C(O)c1ccc2nc(N[C@@H]3CCC(OCc4c(-c5c(Cl)cccc5Cl)noc4C4CC4)C3)sc2c1` (stereo partly drawn) [Example 19], the EC50 lay within 100 to 1000 nM and the maximal effect (Emax) was 116%.

Regarding `CC(C)Oc1cc(C(=O)NS(=O)(=O)C2CC2)cc2sc(N[C@@H]3CCC(OCc4c(-c5c(Cl)cccc5Cl)noc4C4CC4)C3)nc12` (stereo partly drawn) [Example 20], the EC50 lay in the range of 100 to 1000 nM and the Emax was 111%.
